This passage reports inhibition of growth, EC50 and logP results from ChEMBL document CHEMBL3044893, “Synthesis and structureactivity relationships of aliphatic isothiocyanate analogs as antibiotic agents” (Med Chem Res, 2013).

The subject of data set [1] is Pectobacterium carotovorum. Nature of the data set: Growth inhibition of Pectobacterium carotovorum at 30 ug/ml after 12 hr by turbidometric analysis. The format is functional. To be noted: read-out: GI.
Data set [2] relates to Pectobacterium carotovorum. Briefly: Growth inhibition of Pectobacterium carotovorum at 5 ug/ml after 12 hr by turbidometric analysis. The format is functional. To be noted: read-out: GI.
Data set [3] deals with Pectobacterium carotovorum. Nature of the data set: Growth inhibition of Pectobacterium carotovorum at 20 ug/ml after 12 hr by turbidometric analysis. The format is functional. To be noted: read-out: GI.
Data set [4] deals with Pectobacterium carotovorum. Briefly: Growth inhibition of Pectobacterium carotovorum at 50 ug/ml after 12 hr by turbidometric analysis. The format is functional. To be noted: read-out: GI.
Data set [5] has as its system Rhizoctonia solani. Briefly: Growth inhibition of Rhizoctonia solani at 10 ug/ml after 24 to 28 […] by growth rate method. The format is functional. To be noted: read-out: GI.
The test system of data set [6] is Rhizoctonia solani. Briefly: Antifungal activity against Rhizoctonia solani after 24 to 28 […] by growth rate method. The format is functional, organism-based.
Data set [7] deals with Pectobacterium carotovorum. Briefly: Antibacterial activity against Pectobacterium carotovorum after 12 hr by turbidometric analysis. The format is functional, organism-based.
The subject of data set [8] is Rhizoctonia solani. Briefly: Growth inhibition of Rhizoctonia solani at 500 ug/ml after 24 to 28 […] by growth rate method. The format is functional. To be noted: read-out: GI.
The test system of data set [9] is Pectobacterium carotovorum. Briefly: Growth inhibition of Pectobacterium carotovorum at 10 ug/ml after 12 hr by turbidometric analysis. To be noted: read-out: GI. The format is functional.
The nature of data set [10]: 1-octanol-water partition coefficient, log P of the compound by shake flask method. The format is physicochemical.
The test system of data set [11] is Rhizoctonia solani. Nature of the data set: Growth inhibition of Rhizoctonia solani at 300 ug/ml after 24 to 28 […] by growth rate method. The format is functional. To be noted: read-out: GI.
Data set [12] concerns Rhizoctonia solani. Nature of the data set: Growth inhibition of Rhizoctonia solani at 100 ug/ml after 24 to 28 […] by growth rate method. The format is functional. To be noted: read-out: GI.
Data set [13] deals with Rhizoctonia solani. Nature of the data set: Growth inhibition of Rhizoctonia solani at 50 ug/ml after 24 to 28 […] by growth rate method. The format is functional. To be noted: read-out: GI.
The subject of data set [14] is Pectobacterium carotovorum. Nature of the data set: Growth inhibition of Pectobacterium carotovorum at 1 ug/ml after 12 hr by turbidometric analysis. The format is functional. To be noted: read-out: GI.
In data set [15] the test system is Pectobacterium carotovorum. Briefly: Growth inhibition of Pectobacterium carotovorum at 0.01 ug/ml after 12 hr by turbidometric analysis. The format is functional. To be noted: read-out: GI.
The subject of data set [16] is Pectobacterium carotovorum. Nature of the data set: Growth inhibition of Pectobacterium carotovorum at 0.5 ug/ml after 12 hr by turbidometric analysis. The format is functional. To be noted: read-out: GI.
Data set [17] has as its system Pectobacterium carotovorum. Nature of the data set: Growth inhibition of Pectobacterium carotovorum at 0.02 ug/ml after 12 hr by turbidometric analysis. The format is functional. To be noted: read-out: GI.
In data set [18] the test system is Pectobacterium carotovorum. Briefly: Growth inhibition of Pectobacterium carotovorum at 0.2 ug/ml after 12 hr by turbidometric analysis. To be noted: read-out: GI. The format is functional.
The subject of data set [19] is Pectobacterium carotovorum. Nature of the data set: Growth inhibition of Pectobacterium carotovorum at 2 ug/ml after 12 hr by turbidometric analysis. To be noted: read-out: GI. The format is functional.
Data set [20] concerns Pectobacterium carotovorum. Briefly: Growth inhibition of Pectobacterium carotovorum at 0.05 ug/ml after 12 hr by turbidometric analysis. The format is functional. To be noted: read-out: GI.
For data set [21], the system named is Rhizoctonia solani. Briefly: Growth inhibition of Rhizoctonia solani at 5 ug/ml after 24 to 28 […] by growth rate method. To be noted: read-out: GI. The format is functional.
For data set [22], the system named is Rhizoctonia solani. Nature of the data set: Growth inhibition of Rhizoctonia solani at 70 ug/ml after 24 to 28 […] by growth rate method. The format is functional. To be noted: read-out: GI.
Data set [23] relates to Pectobacterium carotovorum. Briefly: Growth inhibition of Pectobacterium carotovorum at 70 ug/ml after 12 hr by turbidometric analysis. The format is functional. To be noted: read-out: GI.
Data set [24] has as its system Rhizoctonia solani. Briefly: Growth inhibition of Rhizoctonia solani at 25 ug/ml after 24 to 28 […] by growth rate method. To be noted: read-out: GI. The format is functional.
Data set [25] deals with Pectobacterium carotovorum. Briefly: Growth inhibition of Pectobacterium carotovorum at 80 ug/ml after 12 hr by turbidometric analysis. The format is functional. To be noted: read-out: GI.
In data set [26] the test system is Rhizoctonia solani. Nature of the data set: Growth inhibition of Rhizoctonia solani at 15 ug/ml after 24 to 28 […] by growth rate method. To be noted: read-out: GI. The format is functional.
Data set [27] has as its system Pectobacterium carotovorum. Briefly: Growth inhibition of Pectobacterium carotovorum at 100 ug/ml after 12 hr by turbidometric analysis. To be noted: read-out: GI. The format is functional.

≈ marks a conversion by molar mass, not a printed value.

In the case of `CCCCCCCN=C=S` [1-ISOTHIOCYANATOHEPTANE], the inhibition of growth at 30 µg/mL in data set [1] was 94.4%. The inhibition of growth at 5 µg/mL in data set [2] is 28.8%. The inhibition of growth at 20 µg/mL in [3] was 84.1%. For the same compound, the inhibition of growth at 50 µg/mL in data set [4] was determined as 97%; with Rhizoctonia solani [13], 46.6%. The inhibition of growth at 10 µg/mL was found to be 21.6% in the data set with Rhizoctonia solani [5] and 68% in data set [9]. The EC50 (usually the concentration needed to bring the measured effect to its halfway point) in the data set with Rhizoctonia solani [6] was determined as 54.5 µg/mL (≈ 346 µM); in data set [7], 7.51 µg/mL (≈ 47.7 µM). Further, the inhibition of growth at 500 µg/mL with Rhizoctonia solani [8] was 89.1%. In addition, in [10], the logP (commonly a log measure of how a compound divides between an organic and an aqueous phase) came out at 4.19. Also, the inhibition of growth at 300 µg/mL with Rhizoctonia solani [11] was determined as 75.1%. Also, the inhibition of growth at 100 µg/mL in the data set on Rhizoctonia solani [12] amounted to 62%.
Consider `CCCCCCN=C=S` [1-ISOTHIOCYANATOHEXANE], for which, in [10], the log partition coefficient (logP) was found to be 3.68.
As to `CCCCCCCCN=C=S` [1-ISOTHIOCYANATOOCTANE], in data set [2], the inhibition of growth at 5 µg/mL turned out to be 70.6%. For the same compound, the inhibition of growth at 1 µg/mL in data set [14] stood at 47.8%. The inhibition of growth at 10 µg/mL in the data set with Rhizoctonia solani [5] worked out at 21.8%; in [9] it was 83.1%. The EC50 in the data set on Rhizoctonia solani [6] worked out at 34.7 µg/mL (≈ 203 µM); in data set [7], 1.17 µg/mL (≈ 6.83 µM). Moreover, the inhibition of growth at 0.01 µg/mL in data set [15] amounted to 6.4%. In data set [16], the inhibition of growth at 0.5 µg/mL worked out at 24.7%. Also, the inhibition of growth at 500 µg/mL with Rhizoctonia solani [8] worked out at 84.2%. This compound yielded a logP in data set [10] of 4.7. Further, the inhibition of growth at 300 µg/mL in the data set on Rhizoctonia solani [11] worked out at 82.2%. Moreover, in the data set with Rhizoctonia solani [12], the inhibition of growth at 100 µg/mL came out at 74.8%. In addition, the inhibition of growth at 50 µg/mL with Rhizoctonia solani [13] amounted to 66.1%.
In the case of `CCCCCN=C=S` [1-ISOTHIOCYANATOPENTANE], the inhibition of growth at 5 µg/mL in [2] is 72.3%. Moreover, the inhibition of growth at 10 µg/mL in the data set on Rhizoctonia solani [5] came out at 16%. Moreover, the EC50 was 90 µg/mL (≈ 696 µM) with Rhizoctonia solani [6] and 2.03 µg/mL (≈ 15.7 µM) in data set [7]. In addition, in data set [16], the inhibition of growth at 0.5 µg/mL stood at 26.2%. Moreover, the inhibition of growth at 0.02 µg/mL in data set [17] is 2.04%. Besides, in data set [18], the inhibition of growth at 0.2 µg/mL came to 22.3%. Besides, the inhibition of growth at 500 µg/mL in the data set with Rhizoctonia solani [8] amounted to 87.4%. This compound also yielded a logP in data set [10] of 3.17. The inhibition of growth at 300 µg/mL in the data set on Rhizoctonia solani [11] was determined as 69%. Besides, in the data set on Rhizoctonia solani [12], the inhibition of growth at 100 µg/mL was found to be 44.6%. The inhibition of growth at 50 µg/mL with Rhizoctonia solani [13] came out at 34.9%. Further, the inhibition of growth at 2 µg/mL in data set [19] was found to be 36%.
With `CCCCN=C=S` [BUTYL ISOTHIOCYANATE], the inhibition of growth at 5 µg/mL in data set [2] was found to be 31.7%; in the data set on Rhizoctonia solani [21] it was 3.72%. The inhibition of growth at 20 µg/mL in data set [3] stood at 84.4%. Also, the inhibition of growth at 10 µg/mL came to 15.5% in the data set with Rhizoctonia solani [5] and 43.9% in [9]. In addition, the EC50 in the data set with Rhizoctonia solani [6] was found to be 42.8 µg/mL (≈ 372 µM); in data set [7] it was 26.1 µg/mL (≈ 227 µM). In addition, in [20], the inhibition of growth at 0.05 µg/mL was 6.38%. Further, in data set [18], the inhibition of growth at 0.2 µg/mL turned out to be 10.7%. For the same compound, the logP in data set [10] is 2.66. The inhibition of growth at 300 µg/mL with Rhizoctonia solani [11] amounted to 91.6%. Besides, in the data set with Rhizoctonia solani [12], the inhibition of growth at 100 µg/mL is 68.2%. For the same compound, the inhibition of growth at 50 µg/mL in the data set with Rhizoctonia solani [13] is 57.7%.
`CCN=C=S` [ETHYL ISOTHIOCYANATE]: in data set [1], the inhibition of growth at 30 µg/mL amounted to 48.5%. For the same compound, the results for the inhibition of growth at 70 µg/mL (in the data set with Rhizoctonia solani [22]; in data set [23]) were 73.9% and 94.8%, respectively. Besides, the inhibition of growth at 20 µg/mL in [3] turned out to be 11.7%. Besides, the inhibition of growth at 50 µg/mL in data set [4] is 64.6%; with Rhizoctonia solani [13] it was 67.3%. The values for the inhibition of growth at 10 µg/mL (in the data set with Rhizoctonia solani [5]; in data set [9]) were 61.1% and 6.74%, respectively. Also, the values for the EC50 (in the data set on Rhizoctonia solani [6]; in [7]) were 3.52 µg/mL (≈ 40.4 µM) and 41.6 µg/mL (≈ 478 µM), respectively. The same compound displayed a logP in data set [10] of 1.64. Besides, the inhibition of growth at 5 µg/mL in the data set on Rhizoctonia solani [21] came out at 58.8%. The inhibition of growth at 100 µg/mL in the data set on Rhizoctonia solani [12] turned out to be 91.8%.
Turning to `CN=C=S` [METHYLISOTHIOCYANATE], the inhibition of growth at 25 µg/mL in the data set on Rhizoctonia solani [24] came to 66.3%. In addition, in [25], the inhibition of growth at 80 µg/mL is 71.5%. Further, the inhibition of growth at 20 µg/mL in data set [3] was found to be 29.9%. The inhibition of growth at 50 µg/mL came to 61.1% in data set [4] and 77.5% with Rhizoctonia solani [13]. Besides, the inhibition of growth at 15 µg/mL in the data set on Rhizoctonia solani [26] is 49.7%. For the same compound, the figures for the inhibition of growth at 10 µg/mL (in the data set on Rhizoctonia solani [5]; in data set [9]) were 41.5% and 10.9%, respectively. For the same compound, the EC50 in the data set on Rhizoctonia solani [6] worked out at 12.3 µg/mL (≈ 169 µM); in data set [7], 38.2 µg/mL (≈ 523 µM). For the same compound, the log partition coefficient (logP) in data set [10] was determined as 1.13. Further, the inhibition of growth at 100 µg/mL in [27] was found to be 81.3%; in the data set on Rhizoctonia solani [12] it was 84.6%.
With `CCCN=C=S` [PROPYL ISOTHIOCYANATE], in [25], the inhibition of growth at 80 µg/mL is 86%. In addition, in data set [3], the inhibition of growth at 20 µg/mL is 47%. Further, the inhibition of growth at 50 µg/mL in data set [4] was 76.3%; in the data set on Rhizoctonia solani [13], 68%. Also, the inhibition of growth at 10 µg/mL was found to be 50.1% in the data set on Rhizoctonia solani [5] and 29% in data set [9]. For the same compound, the EC50 with Rhizoctonia solani [6] is 12 µg/mL (≈ 118 µM); in [7], 20.6 µg/mL (≈ 204 µM). The compound further returned a logP in [10] of 2.15. Further, the inhibition of growth at 300 µg/mL in the data set with Rhizoctonia solani [11] is 93.7%. The inhibition of growth at 5 µg/mL in the data set with Rhizoctonia solani [21] came out at 21.4%. Besides, the inhibition of growth at 100 µg/mL in [27] was determined as 90.7%; in the data set with Rhizoctonia solani [12] it was 84.2%.
